In patent US9932341B2, “Use of pyrazolopyrimidine derivatives for the treatment of PI3K-delta related disorders” (Incyte Corporation, priority 2013, dated 2018):
pIC50: −log10 of the molar value. Where a name gives a salt, the structure may show the parent alone.

The molecules below were run against PI3Kδ (p110δ/p85α) (Homo sapiens (Human), UniProt O00329) (assay: PI3Kδ Scintillation Proximity Assay (Example A3)). Details: 20 μM ATP, 20 μM PIP2, 4 nM PI3Kδ, read-out: PI3Kδ SPA IC50.
Type: biochemical
Description: [γ-^33P]ATP (10 mCi/mL) was purchased from PerkinElmer (Waltham, Mass.). […] PI3Kδ (p110δ/p85α) was purchased from Millipore (Bedford, Mass.). ATP, MgCl2, DTT, EDTA, MOPS and CHAPS were purchased from Sigma-Aldrich (St. Louis, Mo.). Wheat Germ Agglutinin (WGA) YSi SPA Scintillation Beads was purchased from GE healthcare life sciences (Piscataway, N.J.).
The kinase reaction was conducted in polystyrene 384-well matrix white plate from Thermo Fisher Scientific in a final volume of 25 μL. Inhibitors were first diluted serially in DMSO and added to the plate wells before the addition of other reaction components. The final concentration of DMSO in the assay was 0.5%. The PI3K assays were carried out at room temperature in 20 mM MOPS, pH 6.7, 10 mM MgCl2, 5 mM DTT and CHAPS 0.03%. Reactions were initiated by the addition of ATP, the final reaction mixture consisted of 20 μM PIP2, 20 μM ATP, 0.2 μCi [γ-^33P] ATP, 4 nM PI3Kδ. […] 25 mM EDTA, 400 μM ATP. The final concentration of SPA beads was 1.0 mg/mL. After the plate sealing, plates were shaken overnight at room temperature and centrifuged at 1800 rpm for 10 minutes, the radioactivity of the product was determined by scintillation counting on Topcount (PerkinElmer). IC50 determination was performed by fitting the curve of percent control activity versus the log of the inhibitor concentration using the GraphPad Prism 3.0 software.

PI3Kδ (p110δ/p85α), sequence (O00329 whole entry): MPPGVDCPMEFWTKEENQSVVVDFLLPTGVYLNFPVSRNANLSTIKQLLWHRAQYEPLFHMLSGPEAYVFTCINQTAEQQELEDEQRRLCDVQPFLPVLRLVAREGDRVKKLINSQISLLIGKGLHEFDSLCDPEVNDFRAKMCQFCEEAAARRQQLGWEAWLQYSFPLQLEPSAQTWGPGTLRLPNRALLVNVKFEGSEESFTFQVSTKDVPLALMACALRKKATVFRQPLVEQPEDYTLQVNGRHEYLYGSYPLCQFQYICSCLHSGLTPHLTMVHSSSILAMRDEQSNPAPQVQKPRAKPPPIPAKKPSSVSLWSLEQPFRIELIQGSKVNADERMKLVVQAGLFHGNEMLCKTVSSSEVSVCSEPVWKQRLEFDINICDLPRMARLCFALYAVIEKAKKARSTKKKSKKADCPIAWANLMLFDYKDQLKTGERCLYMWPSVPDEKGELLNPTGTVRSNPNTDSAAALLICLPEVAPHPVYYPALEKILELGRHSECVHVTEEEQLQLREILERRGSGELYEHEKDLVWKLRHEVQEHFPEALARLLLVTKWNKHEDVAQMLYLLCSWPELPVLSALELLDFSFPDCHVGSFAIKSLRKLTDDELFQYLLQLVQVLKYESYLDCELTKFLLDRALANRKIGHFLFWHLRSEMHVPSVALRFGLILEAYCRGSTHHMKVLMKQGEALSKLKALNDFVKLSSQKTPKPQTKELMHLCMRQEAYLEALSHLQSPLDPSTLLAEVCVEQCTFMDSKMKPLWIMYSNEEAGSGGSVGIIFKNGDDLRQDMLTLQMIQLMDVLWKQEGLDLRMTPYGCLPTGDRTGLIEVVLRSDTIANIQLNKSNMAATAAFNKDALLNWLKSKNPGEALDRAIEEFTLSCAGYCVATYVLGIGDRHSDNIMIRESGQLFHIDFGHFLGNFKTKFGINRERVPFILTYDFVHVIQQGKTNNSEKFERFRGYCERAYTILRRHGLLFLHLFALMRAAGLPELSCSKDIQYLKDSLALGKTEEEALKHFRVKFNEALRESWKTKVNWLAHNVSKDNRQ
PI3Kδ (p110δ/p85α), sequence (P27986 whole entry partner): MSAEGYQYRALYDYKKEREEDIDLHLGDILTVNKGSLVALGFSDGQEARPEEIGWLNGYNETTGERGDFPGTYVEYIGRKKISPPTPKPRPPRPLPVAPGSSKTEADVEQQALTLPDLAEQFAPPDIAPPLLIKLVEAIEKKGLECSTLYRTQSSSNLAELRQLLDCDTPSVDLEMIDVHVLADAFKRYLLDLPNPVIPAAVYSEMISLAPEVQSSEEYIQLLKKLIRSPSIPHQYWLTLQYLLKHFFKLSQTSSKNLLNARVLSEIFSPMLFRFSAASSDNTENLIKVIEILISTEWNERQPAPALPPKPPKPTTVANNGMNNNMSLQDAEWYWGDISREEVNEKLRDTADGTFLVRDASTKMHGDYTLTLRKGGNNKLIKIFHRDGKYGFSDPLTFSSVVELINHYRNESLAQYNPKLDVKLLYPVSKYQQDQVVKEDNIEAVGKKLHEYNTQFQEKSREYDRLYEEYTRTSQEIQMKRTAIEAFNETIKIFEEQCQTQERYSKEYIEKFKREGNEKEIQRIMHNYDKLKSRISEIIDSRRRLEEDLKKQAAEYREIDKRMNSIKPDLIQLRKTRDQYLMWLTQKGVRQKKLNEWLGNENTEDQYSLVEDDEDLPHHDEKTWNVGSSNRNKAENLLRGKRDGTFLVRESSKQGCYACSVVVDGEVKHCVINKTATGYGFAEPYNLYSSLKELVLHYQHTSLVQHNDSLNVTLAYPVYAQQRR

Compound | pIC50
COc1c(C(C)n2nc(C)c3c(N)ncnc32)cc(Cl)c(C#N)c1C1CNC1 (single isomer, unassigned) [Example 261, 4-[1-(4-Amino-3-methyl-1H-pyrazolo[3,4-d]pyrimidin-1-yl)ethyl]-2-azetidin-3-yl-6-chloro-3-methoxybenzonitrile] | > 8.00
COc1c(C(C)n2nc(C)c3c(N)ncnc32)cc(Cl)c(C#N)c1C1CN(C)C1 (single isomer, unassigned) [Example 262, 4-[1-(4-Amino-3-methyl-1H-pyrazolo[3,4-d]pyrimidin-1-yl)ethyl]-6-chloro-3-methoxy-2-(1-methylazetidin-3-yl)benzonitrile] | > 8.00
COc1c(C(C)n2nc(C)c3c(N)ncnc32)cc(Cl)c(C#N)c1C1CN(CCO)C1 (single isomer, unassigned) [Example 268, 4-[1-(4-Amino-3-methyl-1H-pyrazolo[3,4-d]pyrimidin-1-yl)ethyl]-6-chloro-2-[1-(2-hydroxyethyl)azetidin-3-yl]-3-methoxybenzo nitrile] | > 8.00
COc1c(C(C)n2nc(C)c3c(N)ncnc32)cc(Cl)c(C#N)c1C1CN(C(C)=O)C1 (single isomer, unassigned) [Example 281, 2-(1-Acetylazetidin-3-yl)-4-[1-(4-amino-3-methyl-1H-pyrazolo[3,4-d]pyrimidin-1-yl)ethyl]-6-chloro-3-methoxybenzonitrile] | > 8.00
COc1c(C(C)n2nc(C)c3c(N)ncnc32)cc(Cl)c(C#N)c1C1CN(S(C)(=O)=O)C1 (single isomer, unassigned) [Example 285, 4-[1-(4-Amino-3-methyl-1H-pyrazolo[3,4-d]pyrimidin-1-yl)ethyl]-6-chloro-3-methoxy-2-[1-(methylsulfonyl)azetidin-3-yl]benzonitrile] | > 8.00
COC(=O)N1CC(c2c(C#N)c(Cl)cc(C(C)n3nc(C)c4c(N)ncnc43)c2OC)C1 (single isomer, unassigned) [Example 289, Methyl 3-{3-[1-(4-amino-3-methyl-1H-pyrazolo[3,4-d]pyrimidin-1-yl)ethyl]-5-chloro-6-cyano-2-methoxyphenyl}azetidine-1-carboxylate] | > 8.00
COc1c(C(C)n2nc(C)c3c(N)ncnc32)cc(Cl)c(C#N)c1C1CN(C(=O)NC(C)(C)C)C1 (single isomer, unassigned) [Example 292, 3-{3-[1-(4-Amino-3-methyl-1H-pyrazolo[3,4-d]pyrimidin-1-yl)ethyl]-5-chloro-6-cyano-2-methoxyphenyl}-N-(tert-butyl)azetidine-1-carboxamide] | > 8.00
COc1c(C(C)n2nc(C)c3c(N)ncnc32)cc(Cl)c(C#N)c1C1CN(C(N)=O)C1 (single isomer, unassigned) [Example 293, 3-{3-[1-(4-Amino-3-methyl-1H-pyrazolo[3,4-d]pyrimidin-1-yl)ethyl]-5-chloro-6-cyano-2-methoxyphenyl}azetidine-1-carboxamide] | > 8.00
COc1c(C(C)n2nc(C)c3c(N)ncnc32)cc(Cl)c(C#N)c1C1CN(C(=O)N(C)C)C1 (single isomer, unassigned) [Example 296, 3-{3-[1-(4-Amino-3-methyl-1H-pyrazolo[3,4-d]pyrimidin-1-yl)ethyl]-5-chloro-6-cyano-2-methoxyphenyl}-N,N-dimethylazetidine-1-carboxamide] | > 8.00
CCOc1c(C(C)n2cc(C)c3c(N)ncnc32)cc(Cl)c(C#N)c1C1CN(C(C)C)C1 (single isomer, unassigned) [Example 307, 4-[1-(4-Amino-5-methyl-7H-pyrrolo[2,3-d]pyrimidin-7-yl)ethyl]-6-chloro-3-ethoxy-2-(1-isopropylazetidin-3-yl)benzonitrile] | > 8.00
COc1c(C(C)n2nc(C)c3c(N)ncnc32)cc(C)c(C#N)c1C1CN(C[C@H](C)O)C1 (single isomer, unassigned) [Example 315] | > 8.00
CCOc1c(C(C)n2nc(C)c3c(N)ncnc32)cc(Cl)c(F)c1C1CNC(=O)C1 (single isomer, unassigned) [Example 346, 4-{3-[1-(4-amino-3-methyl-1H-pyrazolo[3,4-d]pyrimidin-1-yl)ethyl]-5-chloro-2-ethoxy-6-fluorophenyl}pyrrolidin-2-one] | > 8.00
CCOc1c(C(C)n2nc(C)c3c(N)ncnc32)cc(Cl)c(F)c1C1COC(=O)N1 (single isomer, unassigned) [Example 353, 4-{3-[1-(4-amino-3-methyl-1H-pyrazolo[3,4-d]pyrimidin-1-yl)ethyl]-5-chloro-2-ethoxy-6-fluorophenyl}-1,3-oxazolidin-2-one] | < 6.30
CCOc1c(C(C)n2nc(C)c3c(N)ncnc32)cc(Cl)c(F)c1C1COC(=O)N1 (single isomer, unassigned) [Example 354, 4-{3-[1-(4-amino-3-methyl-1H-pyrazolo[3,4-d]pyrimidin-1-yl)ethyl]-5-chloro-2-ethoxy-6-fluorophenyl}-1,3-oxazolidin-2-one] | > 8.00
CCOc1c(C(C)n2nc(C)c3c(N)ncnc32)cc(Cl)c(F)c1C1CNC(=O)O1 (single isomer, unassigned) [Example 355, 5-{3-[1-(4-amino-3-methyl-1H-pyrazolo[3,4-d]pyrimidin-1-yl)ethyl]-5-chloro-2-ethoxy-6-fluorophenyl}-1,3-oxazolidin-2-one] | 6.70 to 7.30
CCOc1c(C(C)n2nc(C)c3c(N)ncnc32)cc(Cl)c(F)c1C1CNC(=O)O1 (single isomer, unassigned) [Example 356, 5-{3-[1-(4-amino-3-methyl-1H-pyrazolo[3,4-d]pyrimidin-1-yl)ethyl]-5-chloro-2-ethoxy-6-fluorophenyl}-1,3-oxazolidin-2-one] | 6.70 to 7.30
COc1c(C(C)n2nc(C)c3c(N)ncnc32)cc(Cl)c(C)c1C1CN(CC(C)O)C1 (stereo in doubt) [Example 102, (2S)-1-(3-{3-[1-(4-Amino-3-methyl-1H-pyrazolo[3,4-d]pyrimidin-1-yl)ethyl]-5-chloro-2-methoxy-6-methylphenyl}azetidin-1-yl)propan-2-ol] | > 8.00
COc1c(C(C)n2nc(C)c3c(N)ncnc32)cc(Cl)c(F)c1C1CN(C[C@H](C)O)C1 (stereo partly drawn) [68 (1st peak), (2S)-1-(3-{3-[1-(4-Amino-3-methyl-1H-pyrazolo[3,4-d]pyrimidin-1-yl)ethyl]-5-chloro-6-fluoro-2-methoxyphenyl}azetidin-1-yl)propan-2-ol] | > 8.00
CCOc1c(C(C)n2nc(C)c3c(N)ncnc32)cc(Cl)c(F)c1C1CN(C(C)C)C1 (stereo not drawn) [139 (1st peak), 1-{1-[5-Chloro-2-ethoxy-4-fluoro-3-(1-isopropylazetidin-3-yl)phenyl]ethyl}-3-methyl-1H-pyrazolo[3,4-d]pyrimidin-4-amine] | > 8.00
CCN1CC(c2c(Cl)c(Cl)cc(C(C)n3nc(C)c4c(N)ncnc43)c2OC)C1 (stereo not drawn) [298 (1st peak), 1-{1-[4,5-Dichloro-3-(1-ethylazetidin-3-yl)-2-methoxyphenyl]ethyl}-3-methyl-1H-pyrazolo[3,4-d]pyrimidin-4-amine] | > 8.00
CCOc1c(C(C)n2nc(C)c3c(N)ncnc32)cc(Cl)c(C#N)c1C1CNC(=O)O1 (stereo not drawn) [323 (1st peak), 4-[1-(4-amino-3-methyl-1H-pyrazolo[3,4-d]pyrimidin-1-yl)ethyl]-6-chloro-3-ethoxy-2-(2-oxo-1,3-oxazolidin-5-yl)benzonitrile] | > 8.00
COc1c(C(C)n2nc(C)c3c(N)ncnc32)cc(Cl)c(C)c1C1CN(C(C)=O)C1 (centres unmarked) [Example 2, 1-{1-[3-(1-Acetylazetidin-3-yl)-5-chloro-2-methoxy-4-methylphenyl]ethyl}-3-methyl-1H-pyrazolo[3,4-d]pyrimidin-4-amine trifluoroacetate] | > 8.00
CCC(=O)N1CC(c2c(C)c(Cl)cc(C(C)n3nc(C)c4c(N)ncnc43)c2OC)C1 (centres unmarked) [Example 3, 1-{1-[5-Chloro-2-methoxy-4-methyl-3-(1-propionylazetidin-3-yl)phenyl]ethyl}-3-methyl-1H-pyrazolo[3,4-d]pyrimidin-4-amine trifluoroacetate] | > 8.00
CCC(C)N1CC(c2c(C)c(Cl)cc(C(C)n3nc(C)c4c(N)ncnc43)c2OC)C1 (centres unmarked) [Example 8, 1-{1-[3-(1-sec-butylazetidin-3-yl)-5-chloro-2-methoxy-4-methylphenyl]ethyl}-3-methyl-1H-pyrazolo[3,4-d]pyrimidin-4-amine] | > 8.00
COc1c(C(C)n2nc(C)c3c(N)ncnc32)cc(Cl)c(C)c1-c1ccc(C(=O)N(C)C)nc1 (centres unmarked) [Example 11, 5-{3-[1-(4-Amino-3-methyl-1H-pyrazolo[3,4-d]pyrimidin-1-yl)ethyl]-5-chloro-2-methoxy-6-methylphenyl}-N,N-dimethylpyridine-2-carboxamide bis(trifluoroacetate)] | > 8.00
CCOc1c(C(C)n2nc(C)c3c(N)ncnc32)cc(Cl)c(C)c1-c1ccc(C(=O)N(C)C)nc1 (centres unmarked) [Example 14, 5-{3-[1-(4-Amino-3-methyl-1H-pyrazolo[3,4-d]pyrimidin-1-yl)ethyl]-5-chloro-2-ethoxy-6-methylphenyl}-N,N-dimethylpyridine-2-carboxamide bis(trifluoroacetate)] | > 8.00
